According to patent US20110021565A1, “PIPERIDINE DERIVATIVES AS NK3 ANTAGONISTS” (priority 2007, published 2011):
Where two headings read alike, the source gives them in different places.

Tests used:
[1] = target: T1, recombinant human NK3 receptor (Homo sapiens, UniProt P29371); assay: [3H]SR142801 competition binding assay
T1 construct: expressed in transfected cells; host or cells: HEK293 cells, transient expression; membrane preparation
T1 sequence (P29371 1-465): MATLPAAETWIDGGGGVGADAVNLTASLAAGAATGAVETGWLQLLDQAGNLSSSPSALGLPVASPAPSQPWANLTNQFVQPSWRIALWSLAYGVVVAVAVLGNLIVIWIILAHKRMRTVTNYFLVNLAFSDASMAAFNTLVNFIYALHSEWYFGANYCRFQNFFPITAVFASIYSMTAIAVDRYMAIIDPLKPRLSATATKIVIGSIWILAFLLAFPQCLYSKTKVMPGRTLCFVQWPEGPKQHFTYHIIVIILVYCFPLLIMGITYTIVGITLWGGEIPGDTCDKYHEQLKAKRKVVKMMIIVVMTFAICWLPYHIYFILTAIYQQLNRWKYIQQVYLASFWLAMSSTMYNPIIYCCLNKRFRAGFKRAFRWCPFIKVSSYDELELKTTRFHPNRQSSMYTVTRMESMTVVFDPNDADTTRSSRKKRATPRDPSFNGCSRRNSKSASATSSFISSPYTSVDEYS
Summary of the method: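 Membranes from HEK293 cells transiently expressing the receptor (5 μg protein/well) incubated 75 min at RT with [3H]SR142801 at its KD and 10 compound concentrations (0.0003-10 μM), in pH 7.4 Tris buffer with MnCl2, phosphoramidon and BSA. Nonspecific binding defined with 10 μM SB222200; bound radioactivity counted after filtration. Ki from IC50 via Cheng-Prusoff; duplicates.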

[2] = system: symptoms of schizophrenia; conditions: phase II trial, cited from earlier work
[3] = [3H]SR142801, membranes of HEK293 cells transiently expressing recombinant human NK3 receptor, read-out: hNK3 Ki
[4] = representative compounds, [3H]SR142801, HEK293 membranes, human NK3 receptor, read-out: Ki NK3 h

Ki [1, 3] [nM]	Ki [1, 4] [nM]	Structure (SMILES)	activity on positive symptoms of schizophrenia ([2]; altered behaviour, delusion, hallucinations, extreme emotions, excited motor activity, incoherent speech)	activity on negative symptoms of schizophrenia ([2]; depression, anhedonia, social isolation, memory and attention deficits)
35.6	–	CC(=O)N(C)C1CCN(CCC(C)(C(=O)N[C@@H](CO)c2ccccc2)c2ccc(Cl)c(Cl)c2)CC1 (stereo partly drawn) [Example 134, 4-[4-(Acetyl-methyl-amino)-piperidin-1-yl]-2-(3,4-dichloro-phenyl)-N-((R)-2-hydroxy-1-phenyl-ethyl)-2-methyl-butyramide]	–	–
9.6	9.6	CC(=O)N(C)C1CCN(CCC(C)(C(=O)N[C@@H](CO)c2ccc(Cl)cc2)c2ccc(Cl)c(Cl)c2)CC1 (stereo partly drawn) [Example 136, 4-[4-(Acetyl-methyl-amino)-piperidin-1-yl]-N-[1-(4-chloro-phenyl)-2-hydroxy-ethyl]-2-(3,4-dichloro-phenyl)-2-methyl-butyramide (diastereosisomer 1)]	–	–
56	–	CC(=O)N(C)C1CCN(CCC(C)(C(=O)N[C@H](CO)c2ccc(Cl)cc2)c2ccc(Cl)c(Cl)c2)CC1 (stereo partly drawn) [Example 137, 4-[4-(Acetyl-methyl-amino)-piperidin-1-yl]-N-[1-(4-chloro-phenyl)-2-hydroxy-ethyl]-2-(3,4-dichloro-phenyl)-2-methyl-butyramide (diastereosisomer 2)]	–	–
1.1	1.1	CC[C@H](NC(=O)C(C)(CCN1CCC(N(CCOC)C(C)=O)CC1)c1ccc(Cl)c(Cl)c1)c1ccccc1 (stereo partly drawn) [Example 152, 4-{4-[Acetyl-(2-methoxy-ethyl)-amino]-piperidin-1-yl}-2-(3,4-dichloro-phenyl)-2-methyl-N-((S)-1-phenyl-propyl)-butyramide]	–	–
60.9	–	CC[C@@H](NC(=O)C(C)(CCN1CCC(N(CCOC)C(C)=O)CC1)c1ccc(Cl)c(Cl)c1)c1ccccc1 (stereo partly drawn) [Example 153, 4-{4-[Acetyl-(2-methoxy-ethyl)-amino]-piperidin-1-yl}-2-(3,4-dichloro-phenyl)-2-methyl-N-((R)-1-phenyl-propyl)-butyramide]	–	–
0.8	0.8	CCCN(C(C)=O)C1CCN(CCC(C)(C(=O)N[C@@H](CC)c2ccccc2)c2ccc(Cl)c(Cl)c2)CC1 (stereo partly drawn) [Example 164, 4-[4-(Acetyl-propyl-amino)-piperidin-1-yl]-2-(3,4-dichloro-phenyl)-2-methyl-N-((S)-1-phenyl-propyl)-butyramide]	–	–
14.5	–	CCCN(C(C)=O)C1CCN(CCC(C)(C(=O)N[C@H](CC)c2ccccc2)c2ccc(Cl)c(Cl)c2)CC1 (stereo partly drawn) [Example 165, 4-[4-(Acetyl-propyl-amino)-piperidin-1-yl]-2-(3,4-dichloro-phenyl)-2-methyl-N-((R)-1-phenyl-propyl)-butyramide]	–	–
3	3	CC[C@H](NC(=O)C(C)(CCN1CCC(N(CC)C(C)=O)CC1)c1ccc(Cl)c(Cl)c1)c1ccccc1 (stereo partly drawn) [Example 168, 4-[4-(Acetyl-ethyl-amino)-piperidin-1-yl]-2-(3,4-dichloro-phenyl)-2-methyl-N-((S)-1-phenyl-propyl)-butyramide]	–	–
57.6	–	CC[C@@H](NC(=O)C(C)(CCN1CCC(N(CC)C(C)=O)CC1)c1ccc(Cl)c(Cl)c1)c1ccccc1 (stereo partly drawn) [Example 169, 4-[4-(Acetyl-ethyl-amino)-piperidin-1-yl]-2-(3,4-dichloro-phenyl)-2-methyl-N-((R)-1-phenyl-propyl)-butyramide]	–	–

The next lines start with the compound.

Structure (SMILES)	Ki [1, 3] [nM]	Ki [1, 4] [nM]	activity on positive symptoms of schizophrenia ([2]; altered behaviour, delusion, hallucinations, extreme emotions, excited motor activity, incoherent speech)	activity on negative symptoms of schizophrenia ([2]; depression, anhedonia, social isolation, memory and attention deficits)
CC(=O)N(C)C1CCN(CCC(C)(C(=O)NC(c2ccc(F)cc2)C(F)(F)F)c2ccc(Cl)c(Cl)c2)CC1 (stereo not drawn) [Example 135, 4-[4-(Acetyl-methyl-amino)-piperidin-1-yl]-2-(3,4-dichloro-phenyl)-2-methyl-N-[2,2,2-trifluoro-1-(4-fluoro-phenyl)-ethyl]-butyramide]	12.6	–	–	–
COCCN(C(C)=O)C1CCN(CCC(C)(C(=O)N[C@@H](CO)c2ccc(Cl)c(Cl)c2)c2ccc(Cl)c(Cl)c2)CC1 (stereo partly drawn) [Example 148, 4-{4-[Acetyl-(2-methoxy-ethyl)-amino]-piperidin-1-yl}-2-(3,4-dichloro-phenyl)-N-[1-(3,4-dichloro-phenyl)-2-hydroxy-ethyl]-2-methyl-butyramide (diastreoisomer 1)]	3.8	3.8	–	–
COCCN(C(C)=O)C1CCN(CCC(C)(C(=O)N[C@H](CO)c2ccc(Cl)c(Cl)c2)c2ccc(Cl)c(Cl)c2)CC1 (stereo partly drawn) [Example 149, 4-{4-[Acetyl-(2-methoxy-ethyl)-amino]-piperidin-1-yl}-2-(3,4-dichloro-phenyl)-N-[(S)-1-(3,4-dichloro-phenyl)-2-hydroxy-ethyl]-2-methyl-butyramide (diastreoisomer 2)]	19.4	–	–	–
CC(=O)NC1CCN(CCC(C)(C(=O)N[C@@H](CO)c2ccc(F)cc2)c2ccc(Cl)c(Cl)c2)CC1 (stereo partly drawn) [Example 160, 4-(4-Acetylamino-piperidin-1-yl)-2-(3,4-dichloro-phenyl)-N-[(R)-1-(4-fluoro-phenyl)-2-hydroxy-ethyl]-2-methyl-butyramide]	200	–	–	–
CC[C@H](NC(=O)C(C)(CCN1CCC(NC(C)=O)CC1)c1ccc(Cl)c(Cl)c1)c1ccccc1 (stereo partly drawn) [Example 161, 4-(4-Acetylamino-piperidin-1-yl)-2-(3,4-dichloro-phenyl)-2-methyl-N-((S)-1-phenyl-propyl)-butyramide]	44.2	–	–	–
CC(=O)N(C)C1(c2ccccc2)CCN(CCC[C@]2(c3ccc(Cl)c(Cl)c3)CCCN(C(=O)c3ccccc3)C2)CC1 [SR 142,801, Osanetant]	–	–	active on positive symptoms of schizophrenia	inactive in the treatment of negative symptoms
